Entries after “also recorded” stand apart in the source; their conditions may differ. Like-named read-outs stand apart in the source and are kept apart here.
Assays:
c-fos = assay: Pharmacomapping: whole-brain drug-evoked c-fos activation; details: for brain activation compared with non-deuterated gaboxadol at the same dose: 2.5 hour post administration; for brain activation compared with gaboxadol: BSTrh; for brain activation of each drug alone: gaboxadol at 3 mg/kg alone, ketamine at 6 mg/kg alone
Experimental: (A) Mice are treated with a drug or vehicle solution for the control group using either intraperitoneal (i.p.), per oral (p.o.). subcutaneous (s.c.), intramuscular (i.m.) or intravenous (i.v.) delivery. […] (C) After that period the mice are killed, the c-fos induction is visualized using whole-brain immunostaining, the brains are chemically cleared and finally imaged by light-sheet fluorescent microscopy (LSFM). (D) The whole-brain scans are represented as serial section datasets typically with XYZ resolution of 4×4×5 microns. (E) The c-fos+ cells are detected in these datasets using custom trained machine learning algorithms. (F) The whole-brain distribution of the detected c-fos+ cells is represented in 3D as a spatial map of centroid points in the 3D space of the mouse brain. (G) This 3D map distribution is registered to a reference mouse brain and spatially voxelized using overlapping 150-micron sphere voxels.
At 2.5 hour post administration, the mice were euthanized and brains were immediately preserved by 4% paraformaldehyde (PFA).

mice = assay: Onset of sedation (immobility) in the open field test (OFT); type: in vivo
mouse = assay: Forced swim test; type: in vivo; details: single dose 10 mg/kg, 1 hour and 24 hours after drug delivery, 6 min forced swim
Experimental: The forced swim test is a frequently used behavioral protocol with a well-established therapeutic predictability for a broad range of antidepressants including ketamine (Porsolt et al. 1977; Cryan and Mombereau 2004; Cryan et al. 2005; Lucki et al. 2001). In this test the mouse is put in a beaker filled with water and the time spent struggling, swimming and floating is measured, with the time spent floating—when the mouse stops struggling to swim—being used as a behavioral correlate of depression.

rodent = assay: d-amphetamine-induced hyperlocomotion (rodent model of mania); type: in vivo; details: gaboxadol at 3 mg/kg alone
insomnia = details: three-month efficacy study; cited from earlier work
[1] = human doses equivalent to the mouse 6 mg/kg dose; cited from earlier work
cytochrome P450s (CYPs) = details: cited from earlier work
[2] = 20 mg dose; cited from earlier work
[3] = test system: combined delta, theta and alpha activity; details: 160 minutes after the first treatment; cited from earlier work
[4] = test system: patients with severe major depressive disorder; details: 490 patients; daily oral escitalopram 20 mg and gaboxadol 5 mg or 10 mg; cited from earlier work
GABAA receptor = details: in vivo; cited from earlier work
[5] = cited from earlier work

SMILES: [2H]C1([2H])NCCc2c1o[nH]c2=O [d2-gaboxadol 7,7, 4,5,6,7-tetrahydroisoxazolo[5,4-c]pyridin-3(2H)-one-7,7-d2]
- brain activation compared with non-deuterated gaboxadol at the same dose (c-fos; 6 mg/kg i.p., ORBm, ILA, ACAd, AI, GU, VISC, CLA, LSr, BSTa): considerably higher brain activation than non-deuterated gaboxadol
- brain activation compared with non-deuterated gaboxadol at the same dose (c-fos; 6 mg/kg i.p., ORBm, ILA, ACAd, AI, GU, VISC, CLA, LSr, BSTa, listed as d2-gaboxadol): considerably stronger
- enhancement of synergies with lithium compared with non-deuterated gaboxadol (c-fos; 6 mg/kg with lithium at 150 mg/kg (FIG. 38)): significantly stronger enhancement of synergies with lithium than is found with non-deuterated gaboxadol
- level of brain activation compared with the same doses of non-deuterated gaboxadol (c-fos; 6, 10 and in some cases 20 mg/kg, certain brain areas (e.g. ILA and CP)): higher than the level of activation obtained by the same doses of non-deuterated gaboxadol
- dose of non-deuterated gaboxadol with equivalent/comparable brain activation (c-fos; d2-gaboxadol 7,7 at 6 mg/kg, mice, listed as ring carbon deuterated gaboxadol (7,7-d2), 6 mg/kg): 10 to 20 mg/kg
- onset of sedation (start of immobility) (mice): 13 min
- onset of sedation (start of immobility) (mice; listed as d2-gaboxadol): 13 to 14 min

SMILES: [2H]C1([2H])NC([2H])([2H])C([2H])([2H])c2c1o[nH]c2=O [d6-gaboxadol, 4,5,6,7-tetrahydroisoxazolo[5,4-c]pyridin-3(2H)-one-4,4,5,5,7,7-d6]
- brain activation compared with gaboxadol (c-fos; 6 mg per kg, GU, VISC, AI (AId, AIp), TEa, CLA, BSTa, LC): higher brain activation than gaboxadol
- brain activation compared with gaboxadol (c-fos; 10 mg per kg, ACA (ACAd, ACAv), ILA, GU, VISC, AI, TEa, CLA, BSTa): more efficacious in evoking brain activation than gaboxadol
- brain activation compared with gaboxadol (c-fos; 20 mg per kg, BSTa, BSTov, BSTp, LC, CP, STRv (ACB, OT)): higher brain activation than gaboxadol
- brain activation compared with non-deuterated gaboxadol at the same dose (c-fos; 6, 10 and 20 mg per kg i.p.): considerably higher brain activation than non-deuterated gaboxadol
- onset of sedation (start of immobility) (mice): 11 min

SMILES: CNC1(c2ccccc2Cl)CCCCC1=O (stereo not shown) [ketamine]
- whole-brain activation pattern (c-fos; acute single dose 10 mg/kg, many cortical areas and midline thalamic nuclei): very robust and broad activation
- whole-brain activation pattern (c-fos; acute single dose 5 and 100 mg/kg): modest activation
- brain activation of each drug alone (c-fos): neither gaboxadol at 3 mg/kg nor ketamine at 6 mg/kg alone evoked any brain activation detectable
- time spent floating (immobility) compared to vehicle treated control group (mouse): significantly reduced the time spent in floating; also recorded: significantly decreases the time the drug treated mice spent floating

SMILES: Oc1noc2c1CCNC2 [gaboxadol, 4,5,6,7-tetrahydroisoxazolo (5,4-c) pyridin-3-ol]
- whole-brain activation pattern compared with ketamine (c-fos; gaboxadol 10 mg/kg vs ketamine 10 mg/kg): very similar brain activation as ketamine
- brain activation of each drug alone (c-fos): neither gaboxadol at 3 mg/kg nor ketamine at 6 mg/kg alone evoked any brain activation detectable
- brain activation of each compound alone (c-fos; lithium at 150 mg/kg alone, gaboxadol at 6 mg/kg alone): moderate brain activation on their own
- effect on amphetamine-induced hyperlocomotion (rodent): only modestly
- onset of sedation (start of immobility) (mice): 15 min
- effects in sleep onset and sleep maintenance (insomnia): failed to show significant effects in sleep onset and sleep maintenance
- adverse side-effects in clinical trials [1]: no significant adverse side-effects
- metabolism by CYPs (cytochrome P450s (CYPs)): not metabolized by CYPs
- AUC0-∞ [2]: about 900 ng*hr/ml
- Cmax [2]: 900 ng/mL
- plasma Tmax [2]: ≤ 1.5 h
- whole head MEG planar gradiometer increase in combined delta, theta and alpha activity [3]: ≥ +3
- benefit of oral gaboxadol added to escitalopram [4]: no additional benefit relative to escitalopram alone
- time spent floating (immobility) compared to vehicle treated control group (mouse): significantly reduced the time spent in floating; also recorded: nearly identical behavioral effect as the ketamine group
- GABAA receptor saturation level (blood level) (GABAA receptor): over 900 ng/ml

SMILES: [Li] [lithium]
- typical therapeutic concentration in the serum ([5]; acute treatment of manic episodes): 0.6 to 1.2 mmol/L
- serum concentration associated with mild toxicity ([5]; in vivo): 1200 to 2500 µM
- serum concentration that can be life-threatening ([5]; in vivo): greater than 3.5 mmol/L
